From US20100291034A1, “COMBINATIONS OF HCV PROTEASE INHIBITOR(S) AND CYP3A4 INHIBITOR(S), AND METHODS OF TREATMENT RELATED THERETO” (Schering Corporation, priority 2006, published 2010)
Read-outs that look alike come from different tables or passages of the source.

Assays:
[1] = Exposure to Formula Ia when coadministered with food; format: in vivo
[2] = Clinical study: pharmacokinetics of Formula Ia administered in combination with ritonavir; format: in vivo, human
Method: This study was an open-label, randomized, 2-period fixed-sequence, multiple-dose study (FIG. 4). The safety of coadministration of Formula Ia and ritonavir, as well as the quantitation of the ability of ritonavir to enhance Formula Ia PK parameters (specifically trough concentration values) in healthy human subjects was explored. A dose of 400 mg TID of Formula Ia coadministered with ritonavir was selected, as we have substantial safety and PK data available with Formula Ia administered alone at 400 mg TID and 800 TID for comparison. The dose selected of ritonavir was at a level to inhibit CYP3A4 and below the therapeutic dose for HIV. […] In this study, the effect of ritonavir on Formula Ia was examined as a low dose (100 mg) at two different dosing frequencies (i.e., once in the morning (QAM) and twice a day (BID)), which are commonly administered in HIV therapy. Based upon the findings of these regimens, subsequent regimens may be explored, with modification of the Formula Ia and/or ritonavir component(s). Human subjects received Formula Ia alone for 5 days in order to achieve steady-state. Human subjects were then randomized to receive one of two treatment regimens in which ritonavir was coadministered with Formula Ia (Formula Ia for 10 days, ritonavir administered for 12 days). Steady-state PK samples for Formula Ia were collected on Day 5 (Formula Ia alone), and on Day 15 (Formula Ia+ritonavir) and the PK parameters (primarily trough concentrations values) compared. […] In Period 1, all 16 human subjects received Treatment A and in Period 2 human subjects were randomized to either Treatment B or Treatment C (8 human subjects/treatment). […] Treatment A: Formula Ia 400 mg TID, every 8 hours) (Q8° following a meal or snack. Period 2 (Days 6 to 17): Treatment B: Formula Ia 400 mg TID (Q8°, Days 6 to 15), ritonavir 100 mg QAM (Days 6 to 17), following a meal or snack; Treatment C: Formula Ia 400 mg BID, every 12 hours ([…]°), (Days 6 to 15), ritonavir 100 mg BID, […]° (Days 6 to 17), following a meal or snack. Formula Ia (2×200 mg 3% SLS containing capsules), PO, TID, following a meal or snack. Formula Ia (2×200 mg 3% SLS containing capsules), PO, BID, following a meal or snack. Ritonavir (1×100 mg capsules), PO, QAM, following a meal or snack. Ritonavir (1×100 mg capsules), PO, BID, following a meal or snack. The trough levels after multiple-dosing of Formula Ia alone (Day 5) and after multiple-dosing of Formula Ia in combination with ritonavir (Day 15) were compared. […] AUC, Cmax, Cmin, and Tmax. […] The primary pharmacokinetic parameter is Cmin. The secondary parameters are Cmax and AUC. The log transformed pharmacokinetic parameters including Cmin, AUC, and Cmax were statistically analyzed using ANOVA model extracting effects due to treatment and human subject. […] The corresponding 90% confidence intervals were also provided. There is no intention to compare Treatments B and C to each other. • Treatment A: Formula Ia 400 mg TID (Q8°) following a meal or snack. Period 2 (Days 6 to 17). • Treatment B: Formula Ia 400 mg TID (Q8°, Days 6 to 15), ritonavir 100 mg QAM (Days 6 to 17) following a meal or snack. • Treatment C: Formula Ia 400 mg BID ([…]° Days 6 to 15), ritonavir 100 mg BID ([…]°, Days 6 to 17) following a meal or snack.

[3] = Exposure multiple of Formula Ia, most sensitive animal species versus humans; format: in vivo; settings: most sensitive animal species compared with mean exposure in humans receiving 400 mg TID
[4] = system: human liver cytosol; assay: Incubation of compound Formula Ia or Formula XXVII in human liver cytosol with AKR inhibitor or CYP3A4 inhibitor (formation of M+2 metabolite, LC-MS); format: in vitro ADME
Method: Prior to the addition of drug, the incubation mixture was preincubated for 2 min at 37° C. […] Human liver microsomes and cytosol without NADPH served as negative controls. Parallel incubations with the compound of Formula Ia were used as positive controls. […] All incubations were performed as described previously for human liver cytosols. […] Parallel incubations with the compound of Formula Ia were used as positive controls.

[5] = Clinical study: effect of ketoconazole or ibuprofen on the pharmacokinetics of Formula Ia; format: in vivo, human; settings: for AUC / half-life: human, plasma, po, 400 mg
Method: The study was conducted in an open-label, randomized, 3-period, 2-sequence crossover manner (FIG. 2). During Period 1, all 12 human subjects were administered a single 400 mg dose of Formula Ia. During Periods 2 and 3, human subjects received multiple doses of interacting drug, either ketoconazole (400 mg BID) or ibuprofen (600 mg TID) in a randomized sequence. The interacting drug was administered beginning on Day 1 (3 days prior to Formula Ia administration) and continued through Day 6. A single dose of Formula Ia was administered on Day 4 (2 hours after administration of the AM dose of interacting drug). Plasma samples for pharmacokinetic and metabolite analyses of Formula Ia was collected at predose (0 hour), 0.5, 1, 1.5, 2, 2.5, 3, 4, 5, 6, 7, 8, 9, 10, 12, 24, 36, 48, and 72 hour postdose for each period. (The 48 and 72 hour postdose samples for Period 1 was collected in an outpatient setting). In Periods 2 and 3, additional blood samples were collected immediately prior to dosing of the Formula Ia on Day 4 and two hours post ketoconazole/ibuprofen administration on Day 5 for determination of ketoconazole or ibuprofen concentration. • Treatment A: Formula Ia (4×100 mg capsules); single dose, P.O following an overnight fast, administered on Day 1 or Period 1. • Treatment B: Ketoconazole 400 mg; PO, administered BID from Day 1 to Day 6, Formula Ia (4×100 mg capsules); single dose, PO following an overnight fast, administered on Day 4 (2 hours after the AM ketoconazole dose). • Treatment C: Ibuprofen 600 mg; PO, TID from Day 1 to Day 6 Formula Ia (4×100 mg capsules); single dose, PO following an overnight fast, administered on Day 4 (2 hours after the AM ibuprofen dose).
Human subjects received a single dose of Formula Ia on Day 1 of Period 1. In Period 2 and Period 3, human subjects were treated for 6 days with either ketoconazole or ibuprofen and received a single dose of Formula Ia on Day 4 of each period. There were at least 7 days between administration of Formula Ia in Period 1 and Period 2 and at least 14 days between administration of Formula Ia in Period 2 and 3.
The proportion of human subjects with plasma concentrations above the in vitro IC50 and IC90 for the HCV replicon at each time point was determined. This plasma concentration data was used to estimate the following primary pharmacokinetic variables for the determination of bioavailability comparisons: • AUC(tf)—Area under the plasma concentration-time curve from Time 0 […]. • Cmax—Maximum observed plasma concentration. • Tmax—Time to maximum observed plasma concentration. • t½—Terminal phase half-life.

[6] = system: HCV; assay: EC90 of Formula XIVa used as plasma concentration threshold; settings: Hepatitis C virus
[7] = in vivo; cited from earlier work
[8] = system: HCV; settings: HCV positive patients, Nelson et al. 2003; cited from earlier work
[9] = Mean (% CV), plasma Formula Ia, single 400 mg dose PO, human subjects
[10] = co-administering ketoconazole with Formula Ia

With `CC(C)(C)NC(=O)N[C@H](C(=O)N1CC2C([C@H]1C(=O)NC(CC1CCC1)C(=O)C(N)=O)C2(C)C)C(C)(C)C` (some centres unmarked) [Formula Ia] the exposure [1] was “increases”, the C8 ([2]; Mean PK (% CV), Formula Ia TID (400 mg) alone, Day 5) was 104 (31) and the “effect on the PK parameters examined” value ([2]; coadministration with 100 mg ritonavir QD or BID compared to monotherapy of Formula Ia alone) was “no effect”. The Tmax ([2]; human, plasma, oral, Mean PK (% CV), Formula Ia TID (400 mg) alone, Day 5) was 2.13 h, the AUC ([2]; human, plasma, oral, Mean PK (% CV), Formula Ia TID (400 mg) alone, Day 5, read-out: AUC8) was 4120 ng·h/mL and the Cmax ([2]; plasma, oral, Mean PK (% CV), Formula Ia TID (400 mg) alone, Day 5, with food, healthy human subjects) was 1360 ng/mL. For the same molecule, the exposure multiple [3] was ≥ 4 fold, the “1ST PARENT PEAK AREA” value ([4]; HL Cytosol w/ NADPH + 2 uM Ritonavir) was 3.81E+07 and the “1ST PARENT PEAK AREA” value ([4]; HL Cytosol w/ NADPH + 50 uM Mefenamic acid) was 6.19E+07. For the same molecule, the “1ST PARENT PEAK AREA” value ([4]; HL Cytosol w/ NADPH + 100 uM Flufenamic acid) was 6.33E+07, the “1ST PARENT PEAK AREA” value ([4]; HL Cytosol w/ NADPH + 100 uM Phenolphthalein) was 6.23E+07 and the “1ST PARENT PEAK AREA” value ([4]; HL Cytosol w/ NADPH + 200 uM Diflunisal) was 6.10E+07. The “1ST PARENT PEAK AREA” value ([4]; HL Cytosol w/ NADPH Vehicle Control) was 3.95E+07, the “1ST PARENT PEAK AREA” value ([4]; HL Cytosol w/o NADPH, 20 μM substrate, 60 min, 37° C.) was 7.41E+07 and the Cmax ([5]; Mean (% CV), plasma Formula Ia, single 400 mg dose PO, fasted human subjects, alone or with ketoconazole 400 mg BID or ibuprofen 600 mg TID) was 571 ng/mL. The AUC(0-t) [5, 9] was 2000 ng·h/mL, the C8 [5, 9] was 48.0 (38) and the MRT [5, 9] was 6.57 h. The “increase in Cmax (average)” value [5, 10] was 40%, the “increase of overall exposure (AUC)” value [5, 10] was “more than 2 fold” and the “increase of trough concentration (C8)” value [5, 10] was “approximately 3 fold”. The “increase in the bioavailability of Formula Ia” value ([5]; coadministration of ketoconazole compared to monotherapy of Formula Ia alone) was 2 fold, the “mean residence time (MRT) and effective half-life” value ([5]; effect of ketoconazole) was “increased” and the AUC ([5]; Mean (% CV), plasma Formula Ia, single 400 mg dose PO, human subjects, read-out: AUC(l)) was 2070 ng·h/mL. It also gave an AUC ([5]; Mean (% CV), plasma Formula Ia, single 400 mg dose PO, human subjects, read-out: AUCall) of 2040 ng·h/mL, a half-life ([5]; Mean (% CV), plasma Formula Ia, single 400 mg dose PO, human subjects, read-out: t½ (converted)) of 9.11 h and a half-life ([5]; Mean (% CV), plasma Formula Ia, single 400 mg dose PO, human subjects, read-out: t½ eff (converted)) of 3.3 h. For the same molecule, the Tmax ([5]; median, plasma Formula Ia, single 400 mg dose PO, human subjects) was 1.75 h.

Work on `CCCCC(NC(=O)[C@@H]1[C@@H]2[C@H](CN1C(=O)[C@@H](NC(=O)NC1(CS(=O)(=O)C(C)(C)C)CCCCC1)C(C)(C)C)C2(C)C)C(=O)C(=O)NC1CC1` (some centres unmarked) [Formula XIVa] yielded an EC90 [6] of 0.03 µg/mL.

For `CC(C)c1nc(CN(C)C(=O)N[C@H](C(=O)N[C@@H](Cc2ccccc2)C[C@H](O)[C@H](Cc2ccccc2)NC(=O)OCc2cncs2)C(C)C)cs1` [ritonavir], the half life [7] is listed as 3 to 5 h.

B1: recombinant human IL-10: recombinant human IL-10 given to HCV positive patients in a Phase II clinical study (protein)
chain: SPGQGTQSENSCTHFPGNLPNMLRDLRDAFSRVKTFFQMKDQLDNLLLKESLLEDFKGYLGCQALSEMIQFYLEEVMPQAENQDPDIKAHVNSLGENLKTLRLRLRRCHRFLPCENKSKAVEQVKNAFNKLQEKGIYKAMSEFDIFINYIEAYMTMKIRN
For B1, the hepatic fibrosis [8] is listed as “decrease” and the viral load [8] is listed as “increase”.
